Results: patent publication US8017576B2, “Methods and compositions to treat mucositis” (The University of Chicago, priority 2005, dated 2011)
Where no end group is shown, it is not given here.

Key:
[1] = test system: human colonic Caco2 (C2) cell monolayers; assay: Tight junction recovery after low-calcium disruption, ZO-1 confocal microscopy; format: cell-based; settings: low-calcium medium (3 μM) 1 hour, assessed 2 hours after addition; AMP peptide 8 μg/ml, KGF-1 100 ng/ml, EGF 100 ng/ml
Procedure: The AMP77-97 peptide prevented decreases in TJ proteins and epithelial integrity seen after treatment of human colonic Caco2 (C2) cell monolayers with the oxidant monochloramine, which disrupts intercellular junctions (FIG. 2; C,D). These cells were exposed to low-calcium medium (3 μM) for 1 hr to disrupt TJs, and then allowed to recover in medium containing AMP77-97 peptide, epidermal growth factor (EGF) or keratinocyte growth factor (KGF-1) which are known epithelial cell mitogens that might facilitate recovery of disrupted TJs. […] At the molecular level, AMP77-97 peptide facilitates the formation of TJs by enhancing translocation of several proteins (protein kinase C-zeta, Par6, Cdc42, ECT2 and Par3) from the cytosol into TJ domains.
Localization of the tight junction protein ZO-1 was monitored by indirect immunofluorescence laser scanning confocal microscopy in confluent monolayers of C2 cells. […] To disrupt tight junctions, cells were switched to low-calcium medium (3 μM) for 1 hour. Then a growth factor at a known mitogenic concentration was added to the medium, and 2 hours later its effect on tight junction formation was assessed by confocal microscopy. Vehicle, AMP peptide (8 μg/ml), KGF-1 (100 ng/ml), and EGF (100 ng/ml) were compared.

[2] = test system: BDF-1, C3H/OuJ, C3H/HeN, C57Bl/6 and Balb c mice; assay: Study 2: thickening of oral epithelium in five mouse strains; format: in vivo; settings: Study 2, five mouse strains
Excerpt: In Study 2, the effect of AMP77-97 peptide on thickening in the oral epithelium was compared in five different strains of mice. […] Hyperkeratosis was again observed in the esophagus of BDF-1 mice, and was also seen in C3H/HeN mice.

[3] = test system: BDF-1 mice; assay: Study 1: epithelial thickening of oral mucosal surfaces in mice; format: in vivo; settings: Study 1, mice
Procedure: (§1) The capacity of the AMP77-97 peptide to induce epithelial thickening of oral mucosal surfaces in mice and hamsters was studied to determine if these animals could be used to evaluate the potential of AMP77-97 peptide in the treatment of oral mucositis. In Study 1, female BDF-1 mice (n=8) and Syrian golden hamsters (n=8) were given daily subcutaneous injections of saline, mouse AMP77-97 peptide at 5 mg/kg, or 25 mg/kg for five days. […] There also appeared to be an increase in both hyperplasia and hyperkeratosis with increasing dose (more prevalent/pronounced in the animals receiving 25 mg/kg than those receiving 5 mg/kg) and duration of dosing (there were some effects seen at 2 days, but were more readily seen after 5 consecutive days). The effect was more easily observed on the dorsal than the ventral surface of the tongue.

[4] = test system: hamster cheek pouch; assay: Study 6: radiation-induced cheek pouch mucositis, topical dosing; format: in vivo; settings: each of the hamster cheek pouch studies and the mouse model
Procedure: In a separate test of efficacy (Study 6), AMP77-97 peptide was administered topically into the hamster cheek pouch (n=32). Doses of 0.5, 5 or 50 mg/kg AMP77-97 peptide in PBS were placed in the pouch three times daily from days −5 to −1 before radiation and 1 to 15 after radiation.
Acute Radiation-induced Mucositis. Oral mucositis was induced in hamsters by administering a single dose of radiation of 40 Gy. On day 0, under anesthesia (intraperitoneal injection of ketamine [160 mg/kg] and xylazine [8 mg/kg]), the left buccal pouch was everted, fixed, and radiated while the rest of the animal was shielded with lead cover. Radiation was generated using a 160-kV potential (18.75-ma) source at a focal distance of about 21 cm, hardened with a 3-mm Al filtration system. Ionizing radiation was targeted at the left buccal pouch mucosa at a rate of 1.32 Gy/minute.
Mucositis Evaluation: The progression of mucositis was monitored daily for both models. Every other day starting on day 6 postirradiation, animals were anesthetized using inhalation anesthesia, and the left buccal pouch was everted and photographed. At the conclusion of the study's clinical phase, film was developed, and resulting photos were randomly numbered and then scored in blinded fashion by two observers. […] Severity of oral mucositis (OM) was calculated using the scores per treatment group on each observation day (mean±SE). […]

[5] = test system: Syrian golden hamsters; assay: Study 1: epithelial thickening of oral mucosal surfaces in hamsters; format: in vivo, hamster; settings: Study 1, hamsters
Procedure: as §1

[6] = test system: BDF-1 mice; settings: mouse, in vivo
Procedure: AMP77-97 peptide (25 mg/kg, s.c.) was administered 5 days before and 10 days after radiation of the tongue in the BDF-1 mouse model of oral mucositis. Photomicrographs were prepared 10 days after radiation. Tissue from control irradiated mice treated with vehicle (saline) show substantial epithelial and connective tissue cell loss in both compartments compared to normal mouse tongue.
In Study 3, mucositis was induced in BDF-1 mice (n=40) by administering a single dose of radiation of 30 Gy to the snout. To evaluate the effect of AMP77-97 peptide in this setting of radiation-induced injury of the epithelial and connective tissue compartments of the tongue, mouse AMP77-97 peptide (25 mg/kg) was administered once daily subcutaneously before and after radiation (days −5 to 10; radiation on day 0). […] The evaluation was performed on day 10 when mucositis injury is at its peak. This effect on connective tissue supported that AMP77-97 peptide has beneficial effects on multiple cell and tissue types damaged by radiation.

Substance	formation of new tight junctions / localization of ZO-1 [1]	toxicity (weight gain, mortality) [2]	toxicity (weight gain, mortality) [3]	toxicity as measured by weight loss or mortality [4]	toxicity (weight gain, mortality) [5]	toxicity [6]
EGF: epidermal growth factor, known epithelial cell mitogen [reference compound]	persistent separation of cells with TJ disruption and apparent loss of ZO-1					
LDALVKEKKLQGKGPGGPPPK [AMP77-97 peptide]		no evidence of any toxicity	no evidence of any toxicity	no signs of toxicity	no evidence of any toxicity	no evidence of any toxicity
